In patent US10172957B2, “Acid-labile lipophilic prodrugs of cancer chemotherapeutic agents” (priority 2011, dated 2019):

Legend:
[1] = Stability in mouse plasma at 37° C.; type: in vitro ADME
Method: The stability of the acid labile, lipophilic molecular conjugates to hydrolysis in plasma was evaluated to determine their potential to release the active cancer chemotherapeutic agents into systemic circulation and thereby cause general off target toxicity (“side effects”). The conjugates were incubated with plasma of mouse, rat and human origin.
HPLC grade Methanol from Fisher (Fair lawn, NJ, USA). Part No: A452-4 (074833). HPLC grade Water from Fisher (Fair lawn, NJ, USA). Part No: W5-4 (073352). Drug-free mouse, rat and human plasmas were purchased from Innovative Research Inc. (Southfield, Mich., USA). LIPOSYN® I.V. (30% soybean oil and egg yolk phospholipids, Abbott Laboratories) Fat Emulsion from Hospira, Inc. (Lake Forest, Ill.).
Each drug (ART 198, ART 273, ART 488 and ART 489) was prepared in triplicate in mouse, rat and human plasma individually at […] concentration and vortexed for 1 minute and placed in a water bath at 37° C. at a shake rate of 75 per minute. Samples were drawn at time points of 0, 15, 30, 45, 60, 75, 90, 105, 120, 135, 150, 165, 180, 210, 240, 300, 360 and 480 minutes.
Chromatographic separation of the compounds was performed on a Waters Acquity UPLC™ using a BEH C18 column (1.7 μm, 2.1×50 mm). The mobile phase consisted of Methanol: 0.1% Formic acid (80:20). The flow rate was 0.3 ml/min; the sample injection volume was 5 μL, resulting in a 3 minute run time.
The MS instrumentation consisted of a Waters Micromass Quattro Micro™ triple-quadrupole system (Manchester, UK). The MS system was controlled by a 4.0 version of MassLynx software. Ionization was performed in the positive electrospray ionization mode. MS/MS conditions were the following: capillary voltage 3.02 kV; cone voltage 50 v; extractor voltage 5 v; and RF lens voltage 0.5 v. The source and desolvation temperatures were 100° C. and 400° C. respectively, and the desolvation and cone gas flow were 400 and 30 L/hr, respectively.
The selected mass-to-charge (m/z) ratio transitions of the ART 198 used in the selected ion monitoring (SIM) were: for ART 198, 617 (M+K)^+, for ART 273, 589 (M+K)^+, for ART 488, 913 (M+Na)^+, and for ART 489, 957 (M+Na)^+. The dwell time was set at 200 msec. MS conditions were optimized using direct infusion of standard solutions prepared in methanol and delivered by a syringe pump at a flow rate of 20 μL/min.
Samples of 100 μL were collected at time points of 0, 15, 30, 45, 60, 75, 90, 105, 120, 135, 150, 165, 180, 210, 240, 300, 360 and 480 minutes respectively and the reaction was terminated with methanol. In a separate set of experiments the acid labile, lipophilic molecular conjugates were dissolved in a small amount of ethanol and diluted into a lipid emulsion (Liposyn®) and added to mouse and human plasma before incubation and the hydrolysis of the conjugates was similarly measured. Collected plasma samples of 100 μL containing drug were placed in separate Eppendorf micro centrifuge tubes for processing. Methanol (200 μL) was added to extract the drug using the protein precipitation technique. The micro tubes were then vortex mixed for 10 minutes and centrifuged for 15 minutes at a speed of 10,000 rpm (Eppendorf 5415C centrifuge). The supernatant was collected and filtered using a 0.45 μm filter (Waters 13 mm GHP 0.45 μm) before analysis.
The weighted linear least-squares (1/x) regression was used as the mathematical model. The coefficient (r) for the compounds ranged from 0.9925 to 0.9999. The calibration range was selected according to the concentrations anticipated in the samples to be determined.
Samples were collected at various times and the percent remaining of the acid labile, lipophilic molecular conjugate of the cancer chemotherapeutic agent was determined along with the percent of the chemotherapeutic agent released from the hydrolysis of the conjugate.

[2] = tested on: CEM/VLB100 cells (MDR+); test: cells; type: cell-based, human; settings: for IC50: Homo sapiens, CEM/VLB100, read-out: IC50 CEM/VLB100 (MDR + HTL), CEM/VLB100, MTT; for Degree of resistance (CEM/VLB100): IC50 of the resistant line divided by IC50 of sensitive CEM cells
Excerpt: A second evaluation of the cytotoxicity of the acid labile, lipophilic molecular conjugates was undertaken.
These lines included a uterine sarcoma line, MES-SA, and its doxorubicin-resistant subline, MES-SA/Dx5. See W. G. Harker, F. R MacKintosh, and B. I. Sikic. Development and characterization of a human sarcoma cell line, MES-SA, sensitive to multiple drugs. Cancer Research 43: 4943-4950 (1983); W. G. Harker and B. I. Sikic. Multidrug (pleiotropic) resistance in doxorubicin-selected variants of the human sarcoma cell line MES-SA. Cancer Research 45: 4091 4096 (1985).
The second set of cells tested, CCRF-CEM or simply CEM, were derived from the blood of a patient with acute lymphoblastic leukemia. G. E. Foley, H. Lazarus, S. Farber, B. G. Uzman, B. A. Boone, and R E. McCarthy. Continuous culture of human lymphoblasts from peripheral blood of a child with acute leukemia. Cancer 18: 522-529 (1965). The subline CEM/VLB100 was developed to be resistant to up to vinblastine at 100 ng/ml. W. T. Beck, T. J. Mueller, and L. R. Tanzer. Altered surface membrane glycoproteins in Vinca alkaloid-resistant human leukemic lymphoblasts. Cancer Research 39: 2070-2076 (1979). Drug resistance is achieved by overexpression of the MDR1 gene. Resistance in the CEM subline designated CEM/VM-1-5, however, is “atypical.” M. K. Danks, J. C. Yalowich, and W. T. Beck. Atypical multiple drug resistance in a human leukemic cell line selected for resistance to teniposide (VM-26). Cancer Research 47: 1297-1301 (1987). The classes of drugs included in the “classic” multiple drug resistance phenotype are Vinca alkaloids, anthracyclines, epipodophyllotoxins and antibiotics. However, CEM/VM-1-5 cells retain sensitivity to the Vinca alkaloids despite resistance and cross-resistance to etoposide, anthracyclines and mitoxantrone. Danks, M. K.; Schmidt, C. A.; Cirtain, M. C.; Suttle, D. P.; Beck, W. T., Altered catalytic activity of and DNA cleavage by DNA topoisomerase II from human leukemic cells selected for resistance to VM-26. Biochemistry 1988, 27, 8861-8869. Resistance in CEM/VM-1-5 cells is effected by over expression of the […]. CEM, CEM/VLB100 and CEM/VM-1-5 cells were obtained from Dr. WT Beck, University of Illinois at Chicago.

CCCCCCCCCCCCCCCC1OCC(COC(=O)O[C@@H]2C(=O)C=C(C)[C@@H]3C[C@H]4OC(=O)C(OC(=O)CC(O)(C(C)C)C(C)C)C5[C@@H](C)[C@@H](O)[C@@]6(O)OC[C@@]54C6[C@@]23C)O1 (stereo partly drawn) [ART 488]
percent remaining of initial drug ([1]; 0 min): 100%
percent remaining of initial drug ([1]; 15 min): 91.2%
percent remaining of initial drug ([1]; 30 min): 85.7%
percent remaining of initial drug ([1]; 45 min): 81.3%
percent remaining of initial drug ([1]; 60 min): 75.0%
percent remaining of initial drug ([1]; 75 min): 73.2%
percent remaining of initial drug ([1]; 90 min): 65.2%
percent remaining of initial drug ([1]; 105 min): 58.8%
percent remaining of initial drug ([1]; 120 min): 56.4%
percent remaining of initial drug ([1]; 135 min): 56.2%
percent remaining of initial drug ([1]; 150 min): 55.0%
percent remaining of initial drug ([1]; 165 min): 53.7%
percent remaining of initial drug ([1]; 180 min): 53.7%
percent remaining of initial drug ([1]; 210 min): 52.4%
percent remaining of initial drug ([1]; 240 min): 50.3%
percent remaining of initial drug ([1]; 300 min): 48.2%
percent remaining of initial drug ([1]; 360 min): 45.6%
IC50 [2]: 0.034 ± 0.012 µM
Degree of resistance (CEM/VLB100) [2]: 9 ± 4

COC(=O)[C@@]12OC[C@]34[C@H]([C@@H](O)[C@@H]1O)[C@@]1(C)CC(=O)C(O)=C(C)[C@@H]1C[C@H]3OC(=O)C(OC(=O)CC1(O)CCCCC1)[C@@H]24 (stereo partly drawn) [ART 198]
percent remaining of initial drug ([1]; 0 min): 100%
percent remaining of initial drug ([1]; 15 min): 96.8%
percent remaining of initial drug ([1]; 30 min): 94.0%
percent remaining of initial drug ([1]; 45 min): 85.5%
percent remaining of initial drug ([1]; 60 min): 82.0%
percent remaining of initial drug ([1]; 75 min): 72.6%
percent remaining of initial drug ([1]; 90 min): 66.9%
percent remaining of initial drug ([1]; 105 min): 63.2%
percent remaining of initial drug ([1]; 120 min): 59.2%
percent remaining of initial drug ([1]; 135 min): 57.4%
percent remaining of initial drug ([1]; 150 min): 51.9%
percent remaining of initial drug ([1]; 165 min): 46.2%
percent remaining of initial drug ([1]; 180 min): 43.0%
percent remaining of initial drug ([1]; 210 min): 39.3%
percent remaining of initial drug ([1]; 240 min): 35.4%
percent remaining of initial drug ([1]; 300 min): 32.4%
percent remaining of initial drug ([1]; 360 min): 28.8%
IC50 [2]: 7.19 ± 1.92 µM
Degree of resistance (CEM/VLB100) [2]: 76 ± 52

CCCCCCCCCCCCCCCC1OCC(COC(=O)OC2=C(C)[C@@H]3C[C@H]4OC(=O)C(OC(=O)CC5(O)CCCCC5)[C@H]5[C@]6(C(=O)OC)OC[C@]45[C@H]([C@@H](O)[C@@H]6O)[C@@]3(C)CC2=O)O1 (stereo partly drawn) [ART 489]
percent remaining of initial drug ([1]; 0 min): 100%
percent remaining of initial drug ([1]; 15 min): 95.7%
percent remaining of initial drug ([1]; 30 min): 88.6%
percent remaining of initial drug ([1]; 45 min): 84.8%
percent remaining of initial drug ([1]; 60 min): 79.2%
percent remaining of initial drug ([1]; 75 min): 78.1%
percent remaining of initial drug ([1]; 90 min): 70.1%
percent remaining of initial drug ([1]; 105 min): 68.0%
percent remaining of initial drug ([1]; 120 min): 64.1%
percent remaining of initial drug ([1]; 135 min): 63.2%
percent remaining of initial drug ([1]; 150 min): 59.4%
percent remaining of initial drug ([1]; 165 min): 54.7%
percent remaining of initial drug ([1]; 180 min): 51.6%
percent remaining of initial drug ([1]; 210 min): 50.3%
percent remaining of initial drug ([1]; 240 min): 47.5%
percent remaining of initial drug ([1]; 300 min): 41.1%
percent remaining of initial drug ([1]; 360 min): 38.1%
IC50 [2]: 0.67 ± 0.071 µM
Degree of resistance (CEM/VLB100) [2]: 33 ± 0
